# Reference: patent US20130183268A1, “DRUG COMBINATIONS WITH FLUORO-SUBSTITUTED OMEGA-CARBOXYARYL DIPHENYL UREA FOR THE TREATMENT AND PREVENTION OF DISEASES AND CONDITIONS” (BAYER HEALTHCARE LLC, priority 2010, published 2013)
# Experiments:
# [1] = Metabolite profile, incubation of [14C]regorafenib with liver microsomes (man); format: in vitro ADME; settings: [14C]regorafenib 20 μM, liver microsomes 0.5 mg/mL, 60 min
# Description: (§1) N-oxide (M-2), hydroxymethyl (M-3), de-methylated (M-4) and N-oxide-demethylated (M-5) metabolites of the fluoro-substituted diaryl urea of Formula (I) are shown below. They were identified as metabolites of regorafenib in vitro upon incubation with liver enzymes of various mammalian species (man, dog, rat, mouse). Studies reveal that its metabolites show high protein binding in man and animal species (data not shown). [table]
# [2] = Metabolite profile, incubation of [14C]regorafenib with liver microsomes (rat); format: in vitro ADME, Wistar rat; settings: [14C]regorafenib 20 μM, liver microsomes 0.5 mg/mL, 60 min
# Description: as §1
# [3] = target: mouse PDGFR (Mus musculus, UniProt P05622); assay: Murine PDGFR FRET biochemical assay; settings: in words
# Chain of mouse PDGFR (P05622 553-1098 limits assumed): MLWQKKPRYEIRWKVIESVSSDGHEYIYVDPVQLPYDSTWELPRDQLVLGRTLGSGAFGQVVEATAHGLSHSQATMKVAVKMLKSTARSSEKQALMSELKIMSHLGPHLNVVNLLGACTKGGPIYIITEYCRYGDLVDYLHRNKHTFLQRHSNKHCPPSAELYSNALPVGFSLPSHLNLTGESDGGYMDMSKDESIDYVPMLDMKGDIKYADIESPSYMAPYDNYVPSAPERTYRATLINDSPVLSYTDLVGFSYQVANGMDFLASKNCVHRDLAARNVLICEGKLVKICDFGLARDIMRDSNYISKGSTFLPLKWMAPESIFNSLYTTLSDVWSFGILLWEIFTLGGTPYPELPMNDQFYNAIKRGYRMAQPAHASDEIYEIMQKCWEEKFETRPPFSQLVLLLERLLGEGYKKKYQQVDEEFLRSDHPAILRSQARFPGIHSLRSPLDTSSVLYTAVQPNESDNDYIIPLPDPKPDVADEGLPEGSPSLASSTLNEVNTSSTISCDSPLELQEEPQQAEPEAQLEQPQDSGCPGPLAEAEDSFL
# Description: This assay was formatted in a 96-well black plate (Costar 3915). The following reagents are used: Europium-labeled anti-phosphotyrosine antibody pY20 (Perand streptavidin-APC; poly GT-biotin from, and mouse PDGFR. The reaction conditions are as follows: 1 nM mouse PDGFR is combined with 20 μM ATP, 7 nM poly GT-biotin, 1 nM pY20 antibody, 5 nM streptavidin-APC, and 1% DMSO in assay buffer (50 mM HEPES pH 7.5, 10 mM MgCl2, 0.1 mM EDTA, 0.015% BRIJ 35, 0.1 mg/mL BSA, 0.1% mercaptoethanol). Reaction is initiated upon addition of enzyme. Final reaction volume in each well is 100 μL. After 90 minutes, the reaction is stopped by addition of 10 μL/well of 5 μM staurosporine. Plates are read at both 615 and 665 nm on a Perkin Elmer VictorV Multilabel counter at about 1 hour after the reaction is stopped. Signal is calculated as a ratio: (665 nm/615 nm)*10000 for each well.
# For IC50 generation for both PDGFR and Flk-1, compounds were added prior to the enzyme initiation. A 50-fold stock plate was made with compounds serially diluted 1:3 in a 50% DMSO/50% dH2O solution. […] The data were expressed as percent inhibition: % inhibition=100−((Signal with inhibitor-background)/(Signal without inhibitor-background))*100
# [4] = system: basal pERK in MDA-MB-231 cells; assay: Bio-Plex phospho-ERK1/2 immunoassay; format: cell-based, human
# Description: A 96 well pERK immunoassay, using laser flow cytometry (Bio-Rad) platform has been established to measure inhibition of basal pERK in breast cancer cell line. MDA-MB-231 cells were plated at 50,000 cells per well in 96 well microtitre plates in complete growth media. For effects of test compounds on basal pERK1/2 inhibition, the next day after plating, MDA-MB-231 cells were transferred to DMEM with 0.1% BSA and incubated with test compounds diluted 1:3 to a final concentration of 3 μM to 12 nM in 0.1% DMSO. Cells were incubated with test compounds for 2 h, washed, and lysed in Bio-Plex whole cell lysis buffer A. Samples are diluted with buffer B 1:1 (v/v) and directly transferred to assay plate or frozen at −80 C. degrees until processed. 50 μL of diluted MDA-MB-231 cell lysates were incubated with about 2000 of 5 micron Bio-Plex beads conjugated with an anti-ERK1/2 antibody overnight on a shaker at room temperature. The next day, biotinylated phospho-ERK1/2 sandwich immunoassay was performed, beads are washed 3 times during each incubation and then 50 μL of PE-strepavidin was used as a developing reagent. The relative fluorescence units of pERK1/2 were detected by counting 25 beads with Bio-Plex flow cell (probe) at high sensitivity. The IC50 was calculated by taking untreated cells as maximum and no cells (beads only) as background using in an Excel spreadsheet based program.
# [5] = system: MDA MB-231 human breast carcinoma cells; assay: MDA-MB231 proliferation assay; format: cell-based
# Description: Human breast carcinoma cells (MDA MB-231, NCI) were cultured in standard growth medium (DMEM) supplemented with 10% heat-inactivated FBS at 37° C. in 5% CO2 (vol/vol) in a humidified incubator. Cells were plated at a density of 3000 cells per well in 90 μL growth medium in a 96 well culture dish. In order to determine T0h CTG values, 24 hours after plating, 100 μL of CellTiter-Glo Luminescent Reagent (Promega) was added to each well and incubated at room temperature for 30 minutes. Luminescence was recorded on a Wallac Victor II instrument. […]
# Test compounds are dissolved in 100% DMSO to prepare 10 mM stocks. […] The cells with and without individual test compounds were incubated for 72 hours at which time ATP dependent luminescence was measured, as described previously, to yield T72h values. Optionally, the IC50 values can be determined with a least squares analysis program using compound concentration versus percent inhibition.
# % Inhibition=[1−(T72h test−T0h)/(T72h ctrl−T0h)]×100, where • T72h test=ATP dependent luminescence at 72 hours in the presence of test compound • T72h ctrl=ATP dependent luminescence at 72 hours in the absence of test compound • T0h=ATP dependent luminescence at Time Zero
compound,measurement,setting,value
"CNC(=O)c1cc(Oc2ccc(NC(=O)Nc3ccc(Cl)c(C(F)(F)F)c3)c(F)c2)ccn1 [Example 1, 4{4-[3-(4-chloro-3-trifluoromethylphenyl)-ureido]-3-fluorophenoxy}-pyridine-2-carboxylic acid methylamide]","% of radioactivity, Man",[1],59.1%
same,"% of radioactivity, Wistar rat",[2],75.7%
same,inhibition of PDGFR kinase,[3],significant inhibition
same,IC50,"[4]; Homo sapiens, MDA-MB-231 cells, 2 h",22 nM
same,inhibition of basal pERK,[4]; in words,significant inhibition
same,IC50,"[5]; Homo sapiens, MDA-MB-231 cells, 72 hours",600 nM
same,inhibition of proliferation,[5]; in words,significant inhibition
